Measurements published in patent US8344025B2, “Oxalic acid derivatives and use thereof as physiological cooling active ingredients” (Symrise AG, priority 2007, dated 2013).

Tested on: panel of experts
Experiment: Organoleptic test of cooling action in confectioner's fondant, rated by a panel of experts
Format: in vivo
Settings: scale from 1 (no cooling action) to 9 (extremely strong cooling action), 0.05 wt. % relative to the complete preparation
Description: The compounds according to Examples 1 to 12 were tested for their organoleptic properties, in particular their cooling action. To this end, they were dissolved, in each case in a specific final concentration, in a mass prepared from sucrose (saccharose) and water (confectioner's fondant, supplier Nordzucker AG, Nordstemmen) and evaluated by a panel of experts. Sensory impressions were rated and the cooling action was assessed on a scale from 1 (no cooling action) to 9 (extremely strong cooling action). The results were convincing in every case.

Which cooling action does the source give for `CNC(=O)C(=O)O[C@@H]1C[C@H](C)CC[C@H]1C(C)C` [Example 2, L-menthyl N-methyl oxamate] here?
The cooling action was 6.
